Reference: US5691338A, “1,2-dithiole-3 thiones for the treatment of reverse transcriptase-dependent viral infections” (priority 1995, dated 1997)
“Also recorded” adds a separate entry of the source. Like-named read-outs stand apart in the source and are kept apart here.

Tests used:
[1] = test system: quinone reductase (QR) in H9 cells; test: Elevation of quinone reductase (QR) in H9 cells; type: cell-based, human; details: for fold induction at 30 µM / fold induction at 60 µM / fold induction at 120 µM: Homo sapiens, read-out: Quinone reductase, treated to control value
Protocol: Five ml of medium was added to T-25 flasks and DMSO containing tests compounds were added to a final concentration of 0.1%. Control medium contained 0.1% DMSO. After the drugs were added, 5×10^6 cells in 5 ml of medium was added to each T-25 flask. The cells were grown at 37° C. in a humidified incubator supplemented with 5% CO2 until harvested (N=3 flasks/group). At the indicated times, cells were isolated by centrifugation (500×g×10 min) and were washed three times by adding 10 ml of ice-cold DPBS, mixing, and centrifuging in a refrigerated centrifuge (500×g×10 min) to isolate the cell pellets. The cells were then lysed by the addition of 400 μl of ice-cold DPBS containing 0.5% Triton X-100 and vortexing. Supernatants were then isolated by centrifuging the lysates (5000×g×20 min). Samples were kept on ice or refrigerated until the reagents for QR or GSH spectrophotometric assays were added to the aliquoted microtiter plates. QR levels were determined by aliquoting 10 μl/well of supernatant in a 96-well plate and measuring the activity by the assay described by Prochaska and Santamaria (20) except that the final NADP^+ concentration was 200 μM (21). Samples were assayed in quadruplicate, and dicoumarol inhibitable-rates (which generally represented less than 5% of the total rate) were also measured. Spectrophotometric blanks contained 10 μl of DPBS with 0.5% Triton X-100. For the GSH assay, 300 μl of sample was placed in a centricon-10microconcentrator and centrifuged (5000×g×45 min) until enough ultrafiltrate could be collected. 50 μl/well of sample in quadruplicate was placed in a 96 well "half-area" plate after which 20 μl of 1 mM Ellman's reagent dissolved in DPBS was added. The yellow color (22) developed within 5 min and was scanned with a uvmax microtiter scanner (Palo Alto, Calif.) at 405 nm. Spectrophotometric blanks contained 50 μl DPBS with 0.5% Triton X-100 and 20 μl of 1 mM Ellman's reagent in DPBS. The optical densities of the specimens were calibrated to a GSH standard curve. Protein contents were determined in 3 ml cuvettes by the Bradford method (23). The protein content in the ultrafiltrates employed for GSH determinations were negligible (<0.01 mg/ml).
We confirmed that the induction of QR in microtiter wells mirrored our results in T-25 flasks by using the method of Prochaska and Santamaria (20). Medium (100 μl) containing 0.1% final concentration DMSO was added to all wells except columns designated to contain the highest concentration of drug or spectrophotometric blanks in duplicate sets of U-bottomed microtiter plates. 200 μl of media containing drug (final DMSO concentration=0.1%) was added to the empty column of wells and then diluted in 2-fold serial dilutions across. After the serial dilutions were performed, 100 μl of media containing 1×10^6 cells/ml was added to each well, and the plates were placed in a 37° C. incubator for 48 h. One set of plates was assayed as described (21) for QR activity, the other was assayed for cell number by the method for Alley et al. (24).

HIV-1 (HTLVIIIB) = test: microbe, parasite or virus in culture; type: cell-based
Protocol: The effects for test compounds were assessed by means of both IFA and p24 release. In general, the following protocol was followed: H9 cells were infected with HIV-1 at 1000 50% infective doses of viruses/10^6 cells. Virus was allowed to adsorb for 1 h, after which unadsorbed virus was removed by centrifugation. The cells were resuspended and washed twice with PBS (without Ca^+2 or Mg^+2 salts) and centrifuged to collect the cell pellet (150×g×10 min). Cells were suspended in fresh medium and added at a final cell density of 500,000 cells/ml in a 96-well plate with media containing 0.1% DMSO and various concentrations of test compounds. The cells were re-fed freshly prepared media containing 0.1% DMSO±test compounds on day four (for preinduction experiments, cells were exposed to inducers on days -2, 0, and +4 days relative to infection). After seven days, cells were examined for cytoxicity by trypan blue exclusion, the degree of infection with HIV-1 by IFA, and the supernatants were assayed for p24 levels according to the manufacturer's directions. The IFA procedure can be summarized as follows: The cells were washed twice in PBS and were placed in 5 mm 12-well slides. After allowing the slides to dry and fixing the cells with acetone for 5 min, 10 μl of HIV-1 positive serum in 40 μl PBS was added to each well and allowed to incubate at 37° C. for 30 min. After incubation, the slides were washed twice with PBS and incubated at 37° C. for 30 min with 2.5 μl goat anti-human IgG-fluorescein isothiocyanate conjugate in 50 μl PBS containing 0.01% Evans Blue per well. The slides were then washed twice with PBS, dried, and mounted with 50% glycerol in PBS, and scored for the percentage of fluorescent cells by fluorescent microscopy.

[2] = target: T1, HIV-1 reverse transcriptase (RT) (Human immunodeficiency virus type 1 group M subtype B, UniProt P04585); test: Inhibition of recombinant HIV-1 reverse transcriptase (TTP incorporation); type: biochemical; details: for Ki: Segal transformation of Dixon plots
T1 construct: Recombinant HIV-1 reverse transcriptase (RT) was obtained from Worthington (Freehold, N.J.); purchased Worthington (Freehold, N.J.)
Protocol: Reverse transcriptase assays were performed as described by Flexner, et al. (25) using recombinant HIV-1 RT as the source of enzyme. Dilutions and assay were carried out in 96-well "half-area" plates. The enzyme with various concentrations of test compounds were dissolved in DPBS containing 1% w/v BSA and diluted in 50 μl volumes; 10 μl aliquots in triplicate were transferred to another plate for the enzyme assay. The reactions were initiated by the addition of 25 μl/well of buffer containing 50 mM Tris.cndot.Cl (pH 8.0), 75 mM KCl, 1 mM dithiothreitol, 2 mM MgCl2, 5 μg/ml poly(A), 2.5 μg/ml oligo (dT), 10 μCi/ml ^32 p TTP with or without unlabeled TTP. […] TTP incorporation was measured by spotting 20 μl of the reaction cocktail onto DE81 paper, washing the paper with 4×5 min washes of 300 mM NaCl and 30 mM sodium citrate (pH 7.0), drying the paper, and counting the paper by liquid scintillation counting. The assays performed with oltipraz and 1,2-dithiole-3-thione contained 0.29% final concentration DMSO. This concentration of DMSO had no effect on RT activity.

[3] = single 250 mg dose, adults, cited from earlier work
[4] = test system: glutathione S-transferases; details: Schistosoma mansoni; cited from earlier work
[5] = Dixon plots, listed as oltipraz

SMILES: Cc1c(-c2cnccn2)ssc1=S [compound 11, 4-methyl-5-(2-pyrazinyl)-1,2-dithiole-3-thione]
- Quinone Reductase Specific Activity ([1]; 24 h, 30 μM): 62.0 ± 2.0 nmol/min/mg
- Quinone Reductase Specific Activity ([1]; 24 h, 60 μM): 83.5 ± 1.7 nmol/min/mg
- Quinone Reductase Specific Activity ([1]; 24 h, 120 μM): 109 ± 28 nmol/min/mg
- Quinone Reductase Specific Activity ([1]; 48 h, 30 μM): 52.7 ± 2.9 nmol/min/mg
- Quinone Reductase Specific Activity ([1]; 48 h, 60 μM): 68.0 ± 2.9 nmol/min/mg
- Quinone Reductase Specific Activity ([1]; 48 h, 120 μM): 79.7 ± 0.28 nmol/min/mg
- Quinone Reductase Specific Activity ([1]; 72 h, 30 μM): 40.4 ± 4.7 nmol/min/mg
- Quinone Reductase Specific Activity ([1]; 72 h, 60 μM): 47.3 ± 4.6 nmol/min/mg
- Quinone Reductase Specific Activity ([1]; 72 h, 120 μM): 75.0 ± 8.6 nmol/min/mg
- fold induction at 30 µM ([1]; H9, 24 h): 1.1
- fold induction at 60 µM ([1]; H9, 24 h): 1.48
- fold induction at 120 µM ([1]; H9, 24 h): 1.93
- fold induction at 30 µM ([1]; H9, 48 h): 1.52
- fold induction at 60 µM ([1]; H9, 48 h): 1.96
- fold induction at 120 µM ([1]; H9, 48 h): 2.28
- fold induction at 30 µM ([1]; H9, 72 h): 0.86
- fold induction at 60 µM ([1]; H9, 72 h): 1.01
- fold induction at 120 µM ([1]; H9, 72 h): 1.6
- elevation of QR ([1]; dose- and time-dependent, H9 cells): least effective inducer of QR and GSH
- inhibition of HIV-1 replication, result in words (HIV-1 (HTLVIIIB); H9 cells): effective
- inhibitory potency less than that of AZT (HIV-1 replication) (HIV-1 (HTLVIIIB); H9 cells, relative to AZT (FIG. 3)): approximately 100 fold
- IC50 (HIV-1 (HTLVIIIB); Human immunodeficiency virus 1, H9, read-out: IC50 HIV-1 replication (Exp 1)): 2 µM
- IC50 (HIV-1 (HTLVIIIB); Human immunodeficiency virus 1, H9, read-out: IC50 HIV-1 replication (Exp 2)): 3 µM
- IC50 (HIV-1 (HTLVIIIB); Human immunodeficiency virus 1, H9, read-out: IC50 HIV-1 replication as determined by IFA): 9.7 ± 2 µM
- effect of pre-treatment of H9 cells with inducers on anti-HIV-1 activity (HIV-1 (HTLVIIIB); inducers 3-4 days prior to exposure to virus, listed as oltipraz): did not increase the antiviral effect; also recorded: no enhancement of the anti-HIV-1 activity
- type of inhibition with respect to TTP [2, 5]: non-competitive inhibitor
- type of inhibition with respect to poly(A):oligo(dT) [2, 5]: mixed inhibitor
- Ki ([2]; N=2 experiments, read-out: Ki with respect to TTP): 183 ± 50 µM
- Ki ([2]; N=3 experiments, read-out: Ki with respect to poly(A):oligo(dT)): 189 ± 29 µM
- synergy as inhibitors of reverse transcriptase ([2]; moderate to high levels of inhibition): synergistically with AZT 5'-triphosphate
- inhibition of recombinant HIV-1 reverse transcriptase ([2]; poly(A):oligo(dT) and TTP as substrates): inhibitor
- Cmax ([3]; read-out: peak serum level): > 4 µM
- peak serum level [3]: greater than 1 μg/ml
- inhibition of glutathione S-transferases [4]: irreversibly inhibits
